Data: patent publication US20250093330A1, “METHOD AND DEVICE FOR DRUG SCREENING” (SHANGHAI LIDE BIOTECH CO., LTD., priority 2021, published 2025)
“Also recorded” adds a separate entry of the source.

Assays:
Type in all cases: in vivo, human (patient-derived), mouse host
[1] = tested on: primary duodenal cancer cells; test: method of the present invention, drug screening on primary duodenal cancer cells from a patient; conditions: primary tumor tissue of duodenal ampullary tumor patient, FIG. 9
Excerpt: 4 to 5-week old female Nu/Nu mice was ordered from the supplier (purchased from Beijing Vital River Laboratory Animal Technology Co., Ltd.) and raised in SPF grade animal room. Before the experiment, the animal was adapted for at least three days. Freshly collected tumor samples obtained from surgery or from mouse PDX models containing tumor cells from patient were kept in a storage tube and transported to the laboratory on ice in the shortest possible time. After removing the non-tumor tissues and necrotic tissues in the biosafety cabinet, the tumor samples were cut into cubes of 1-3 mm^2, rinsed with HBSS. […] Collected cell suspension and centrifuged the suspension at 1000 rpm for 3 minutes to remove supernatant, and re-suspended in PBS containing 1% PBS; counted cell numbers and adjusted cell density to 1×10^8/ml. […] Counted the number of cells, and adjusted the cell density to 1-10×10^5/ml. […] 5-14 day after administration, the mice were killed and cell viability was detected by quantitative analysis of ATP by CellTiter-Glo luminescence in the modified polyvinylidene fluoride tubes. According to the viability of tumor cells in the control group, the percentages of cell viable proliferation (t/c %) in the experiment groups were calculated, and then the efficacy of the corresponding drugs was evaluated. […] The viability of the tumor cells was measured.

[2] = tested on: patient-derived gastric cancer cells in GAPF155; test: traditional PDX method, mouse PDX model GAPF155; conditions: FIG. 2
Excerpt: (§1) The PDX model well maintains the biological characteristics the of primary tumor cells of a patient. The model is obtained by transplanting a fresh tumor tissue of a patient into an immune deficient mouse (e.g. a nude mouse or a severe combined immune deficiency (SCID) mouse). Such models maintain the genetic characteristics of the patient as well as tumor heterogeneity. Presently, the major difficulty of using PDX model for individualized precision medical treatment is the lengthy time period spent on modelling and sensitivity test, and the low success rate for modelling. For example, primary cell transplantation takes 2-3 months, and the drug sensitivity test takes 3-4 months. In addition, PDX modelling requires a high level of technical skills. Surgeons, histologists and researchers need to cooperate closely after the tumor sample is obtained from the patient. Therefore, how to improve the method for determining the sensitivity of tumor cells to an anti-tumor drug by using a PDX model becomes an urgent issue. The method for PDX mouse modelling is known in the art. […] The sensitivity of the patient-derived gastric cancer cells in GAPF155 to S-1 was detected by the traditional PDX method and the method of the present invention (FIG. 2 and FIG. 3).

[3] = tested on: patient-derived gastric cancer cells in GAPF155; test: method of the present invention (implanted PVDF tube, CellTiter-Glo ATP viability), GAPF155 cells; conditions: FIG. 3
Protocol: (§2) The viability of the tumor cells was measured. Mouse PDX model GAPF155 was obtained by implanting primary gastric cancer cells into mice. After 2 months of feeding, patient-derived gastric cancer cells were obtained from GAPF155. The sensitivity of the patient-derived gastric cancer cells in GAPF155 to S-1 was detected by the traditional PDX method and the method of the present invention (FIG. 2 and FIG. 3).

[4] = tested on: patient-derived gastric cancer cells from GAPF157; test: traditional PDX method, mouse PDX model GAPF157; conditions: FIG. 4
Excerpt: as §1, with “(FIG. 4” for “(FIG. 2”, “FIG. 5).” for “FIG. 3).”

[5] = tested on: patient-derived gastric cancer cells from GAPF157; test: method of the present invention (implanted PVDF tube, CellTiter-Glo ATP viability), GAPF157 cells; conditions: FIG. 5
Protocol: as §2, with “model […]” for “model GAPF155”, “from GAPF157.” for “from GAPF155.”, “(FIG. 4” for “(FIG. 2”, “FIG. 5).” for “FIG. 3).”

Compound | response to drug in drug screening [1] | sensitivity of the tumor cells to the drug / anti-tumor activity [2] | sensitivity of the tumor cells to the drug / anti-tumor activity [3] | sensitivity of the tumor cells to the drug / anti-tumor activity [4] | sensitivity of the tumor cells to the drug / anti-tumor activity [5]
Nc1ccn([C@@H]2O[C@H](CO)[C@@H](O)C2(F)F)c(=O)n1 [gemcitabine] | well responded |  |  |  | 
Tegafur [S-1] |  | sensitive; also recorded: good anti-tumor activity | sensitive; also recorded: good anti-tumor activity | sensitive; also recorded: good anti-tumor activity | sensitive; also recorded: good anti-tumor activity
